Reference: patent publication US9700565B2, “Method of treating mixed lineage leukemia gene-rearranged acute lymphoblastic leukemias” (Dana-Farber Cancer Institute, Inc., priority 2003, dated 2017)

Experiments:
SEMK2-M1 = test: In vivo xenograft model of MLL rearranged ALL with bioluminescent imaging, SEMK2-M1 cells; design: species or system SCID-beige mice; conditions: 150 mg/kg once daily via gavage, 5 days per week
Description: (§1) To determine if PKC412 is effective against an in vivo model of MLL rearranged ALL, a xenograft model system in which leukemia burden can be quantitated with in vivo bioluminescent imaging is established. SEMK2-M1 and RS4; 11 (ATCC Number: CRL-1873) cell lines are engineered to express firefly luciferase fused to neomycin phosphotransferase by retroviral transduction. One million leukemia cells are then injected into the tail vein of SCID-beige mice. Within 1 week, the bioluminescent signal is detectable in a location consistent with the femur. Pathologic analysis of similarly xenografted mice confirm that the leukemia cells are initially found in the mouse bone marrow present in the femoral head. The leukemia subsequently progresses to replace the normal bone marrow and involve other organs, thus mimicking the progression of human leukemia. Once the leukemia had engrafted, as can be determined by the presence of a bioluminescent signal, a cohort of mice is treated with either 150 mg/kg PKC412 or vehicle once daily via gavage for 5 days per week. Serial imaging of the two cohorts is then performed to quantitate disease burden. […] Thus, oral administration of PKC412 is effective in vivo against human lymphoblastic leukemia with an MLL rearranged ALL arrangement and activated FLT3.

RS4; 11 = test: In vivo xenograft model of MLL rearranged ALL with bioluminescent imaging, RS4; 11 cells; conditions: SCID-beige mice injected with RS4; 11 cells (does not over-express FLT3); 150 mg/kg once daily via gavage, 5 days per week
Description: as §1

## CO[C@@H]1[C@H](N(C)C(=O)c2ccccc2)C[C@H]2O[C@]1(C)n1c3ccccc3c3c4c(c5c6ccccc6n2c5c31)C(=O)NC4 [PKC412, N-benzoyl-staurosporine]
SEMK2-M1; SCID-beige mice engrafted with SEMK2-M1 cells (over-expresses FLT3), after 2 weeks of therapy
  quantification of total leukemic burden (bioluminescent imaging): anti-tumor efficacy
SEMK2-M1; SEMK2-M1 injected mice, compared to control mice
  tumor burden by pathological analysis at completion of the study: vast differences in tumor burden
RS4; 11
  anti-tumor effect on leukemia (bioluminescent imaging): no effect
